# Reference: publication PMC3299254 (International Journal of Microbiology, 2012)
# Like-named read-outs stand apart in the source and are kept apart here. No end group written: not given here.
# Legend:
# [1] = test system: Pseudomonas aeruginosa CMCC10104; type: cell-based; settings: for MIC: Pseudomonas aeruginosa CMCC10104, microtiter dilution, LB medium without salt, 10^4-10^5 CFU/mL, 37°C, 24 h, OD620, Table 2
# Experimental: (§1) All strains were cultured on Mueller-Hinton medium.
# [2] = test system: human erythrocytes; assay: Minimum hemolytic concentration (MHC); type: cell-based
# Experimental: The MHCs were measured by the method as described in Chen et al.: peptides were added to 1% human erythrocytes in phosphate-buffered saline (0.08 mol/L NaCl, 0.043 mol/L Na2HPO4, 0.011 mol/L KH2PO4) and then kept at 37°C for 1 h in microtiter plates. The supernatants were collected by centrifugation (800 g), and the OD562 of each supernatant was determined. We chose a 0.1% Triton X-100 solution as the positive control because this solution causes the total release of hemoglobin. We defined the MHC as the highest peptide concentration that caused no detectable release of hemoglobin (the ratio of the OD562 for the peptide solution to the OD562 for the positive control should be less than 1%).
# [3] = test system: Acinetobacter baumannii clinical isolates; type: cell-based; settings: microtiter dilution, 37°C, 24 h, OD620
# Experimental: as §1
# [4] = test system: Bacillus pumilus CMCC63202; settings: microtiter dilution, 37°C, 24 h, OD620
# From the text: (§2) Twenty-two clinical isolates and night standard laboratory strains were used in this study: 4 Acinetobacter baumannii, 4 Pseudomonas aeruginosa, 3 Staphylococcus epidermidis, and 6 Klebsiella pneumonia (Changhai Hospital, Shanghai, China); 5 methicillin-resistance Staphylococcus aureus (Ruijin Hospital, Shanghai, China); Staphylococcus aureus CMCC26003; Bacillus subtilis DB430;Bacillus pumilus CMCC63202; Micrococcus luteus CMCC28001; E. coli ATCC8099; Klebsiella pneumoniae CMCC46117;Salmonella paratyphi B CMCC50094; Pseudomonas aeruginosa CMCC10104; Micrococcus S1.634. In addition, Pseudomonas aeruginosa CMCC10104 was used during the design of the peptides for evaluating antimicrobial activities. All strains were cultured on Mueller-Hinton medium.
# (§3) The antibacterial activities of the different peptides were evaluated using the minimum inhibitory concentration (MIC). The process followed the standard microtiter dilution method in LB medium without salt. Briefly, bacteria were grown overnight in LB at 37°C and diluted in the same medium. Then, 100 μL of the medium was dispensed into each well of a 96-well plate. The number of bacteria was between 10^4 and 10^5 CFU/mL. Serial dilutions of peptides were performed consecutively in each well in 10 μL. Plates were incubated at 37°C for 24 h; then, the OD620 was measured to determine the MIC of each peptide.
# [5] = test system: Bacillus subtilis DB430; settings: microtiter dilution, 37°C, 24 h, OD620
# From the text: as §2, §3
# [6] = test system: E. coli ATCC8099; settings: microtiter dilution, 37°C, 24 h, OD620
# From the text: as §2, §3
# [7] = test system: Gram-positive and Gram-negative bacteria and 22 clinical isolates; settings: overall statement
# From the text: as §2, §3
# [8] = test system: Klebsiella pneumonia clinical isolates; settings: range over 6 clinical isolates
# From the text: as §2, §3
# [9] = test system: Klebsiella pneumoniae CMCC46117; settings: microtiter dilution, 37°C, 24 h, OD620
# From the text: as §2, §3
# [10] = test system: MRSA clinical isolates; settings: range over 5 clinical MRSA isolates
# From the text: as §2, §3
# [11] = test system: Micrococcus luteus CMCC28001; settings: microtiter dilution, 37°C, 24 h, OD620
# From the text: as §2, §3
# [12] = test system: Pseudomonas aeruginosa clinical isolates; settings: range over 4 clinical isolates
# From the text: as §2, §3
# [13] = test system: Salmonella paratyphi B CMCC50094; settings: microtiter dilution, 37°C, 24 h, OD620
# From the text: as §2, §3
# [14] = test system: Soluble wall Micrococcus S1.634; settings: microtiter dilution, 37°C, 24 h, OD620
# From the text: as §2, §3
# [15] = test system: Staphylococcus aureus CMCC26003; settings: microtiter dilution, 37°C, 24 h, OD620
# From the text: as §2, §3
# [16] = test system: Staphylococcus epidermidis clinical isolates; settings: range over 3 clinical isolates
# From the text: as §2, §3
# [17] = Circular dichroism, percentage helicity; type: physicochemical; settings: CD, 100 μM peptide, 10 mM sodium phosphate pH 7.5, 50% trifluoroethanol
# Experimental: CD spectra were obtained with a Jasco J-710 instrument (Jasco, Tokyo, Japan) utilizing quartz cells with a 2 mm path length and peptide concentrations of 100 μM in a 10 mM sodium phosphate buffer with a pH of 7.5 containing 50% trifluoroethanol. Each spectrum was obtained from an average of 5 pairs of duplicates, and the percentage helicity of each peptide was determined.
# The hydrophobic moments were determined with the HeliQuest web server, which can be used to evaluate amphipathicity. The percent helix values were determined based on CD spectra.
# [18] = MHC/MIC ratio, MHC human erythrocytes, MIC Pseudomonas aeruginosa
# [19] = 1% human erythrocytes in PBS, 37°C, 1 h, OD562, highest concentration with no detectable hemoglobin release (<1% of 0.1% Triton X-100)
Substance,"Therapeutic index [1, 18]",MIC [1],"MHC [2, 19]",also measured
KWKSFIKKLTSKFLHSKKKF-NH2 [Peptide K17],40,12.5 µg/mL,>500 µg/mL,–
KWKSFIKKKTSKFLHSAKKF-NH2 [Peptide K9],–,>50 µg/mL,–,–
KWKSFIKKLTKKFLHSAKKF-NH2 [Peptide K11],320,1.6 µg/mL,–,MIC ([3]; clinical isolate b-01): 0.8 µg/mL; MIC ([3]; clinical isolate b-02): 3.125 µg/mL; MIC ([3]; clinical isolate b-04): 1.6 µg/mL; MIC [4]: 0.5 µg/mL; MIC [5]: 2 µg/mL; MIC [6]: 0.5 µg/mL; MICs [7]: less than 10 μg/mL; MIC [8]: 0.5−4.0 μg/mL; MIC [9]: 2 µg/mL; MIC [10]: 0.25−4 μg/mL; MIC [11]: 2 µg/mL; MIC [12]: 1.0−8.0 μg/mL; MIC [13]: 2 µg/mL; MIC [14]: 1 µg/mL; MIC [15]: 0.5 µg/mL; MIC [16]: 0.5−8 μg/mL
"KWKSFIKKLTSKALHSAKKF-NH2 [Peptide A13, S16 derivative by single amino acid substitution]",80,6.25 µg/mL,>500 µg/mL,%Helix [17]: 45.9%
KWKSFIKKLTSKFLHSAKKF-NH2 [Peptide S16],160,3.125 µg/mL,>500 µg/mL,MIC ([3]; clinical isolate b-01): 3.125 µg/mL; MIC ([3]; clinical isolate b-02): 6.25 µg/mL; MIC ([3]; clinical isolate b-03): 6.25 µg/mL; MIC ([3]; clinical isolate b-04): 3.125 µg/mL
"KWKSFIKKLTSKFLHSANKF-NH2 [Peptide N18, S16 derivative by single amino acid substitution]",80,6.25 µg/mL,>500 µg/mL,%Helix [17]: 37.2%
KWKSFIKKLLSKFLHSAKKF-NH2 [Peptide L10],10,12.5 µg/mL,<125 µg/mL,–
"KWKSFIKKLTLKFLHSKKKF-NH2 [Peptide L11, S16 derivative by single amino acid substitution]",–,>50 µg/mL,–,–
KWKSFKKKLTSKFLHSAKKF-NH2 [Peptide K6],–,12.5 µg/mL,–,–
KWNSFIKKLTSKFLHSAKKF-NH2 [Peptide N3],–,12.5 µg/mL,–,–
KWKSFIKKLTDKFLHSAKKF-NH2 [Peptide D11],20,25 µg/mL,>500 µg/mL,–
KWKSFIKKLTSKKLHSAKKF-NH2 [Peptide K13],–,>50 µg/mL,–,–
KWKSFIKKSTSKFLHSAKKF-NH2 [Peptide S9],10,50 µg/mL,>500 µg/mL,–
KWKSFIKKRTSKFLHSAKKF-NH2 [Peptide R9],–,>50 µg/mL,–,–
KWKSFIKKLTSKFLHSAKKN-NH2 [Peptide N20],80,6.25 µg/mL,>500 µg/mL,–
"KWKSFIKKLASKFLHSAKKF-NH2 [Peptide A10, S16 derivative by single amino acid substitution]",20,12.5 µg/mL,250 µg/mL,%Helix [17]: 72.5%
KWKSFIKKAKTSFLHSAKKF-NH2 [Peptide A9],20,25 µg/mL,>500 µg/mL,–
"KWKLFKKIPKFLHLAKKF-NH2 [Peptide P18, reference compound]",–,25 µg/mL,–,"MIC ([3]; clinical isolate b-01): 6.25 µg/mL; MIC ([3]; clinical isolate b-02): 25 µg/mL; MIC ([3]; clinical isolate b-03): 12.5 µg/mL; MIC ([3]; clinical isolate b-04): 12.5 µg/mL; Therapeutic index ([1]; CMCC10104, 24 h): 10; MHC [2]: 250 µg/mL"
KWKSFIKKLTSKFLHLAKKF-NH2 [CP-P],20,12.5 µg/mL,250 µg/mL,–
KWKSFINKLTSKFLHSAKKF-NH2 [Peptide N7],40,12.5 µg/mL,>500 µg/mL,–
KFKSFIKKLTSKFLHSAKKF-NH2 [Peptide F2],20,12.5 µg/mL,250 µg/mL,–
KWKSFIKKLTSKFLHSADKF-NH2 [Peptide D18],20,25 µg/mL,>500 µg/mL,–
